This passage reports IC50 results from patent US20240083857A1, “2-Methyl-Quinazolines” (Bayer Pharma Aktiengesellschaft, priority 2017, published 2024).

The target in assay [1] is K-Ras^G12C : hSOS1 interaction (Homo sapiens, UniProt Q07889). The assay is described as follows: Biochemical assay 1: K-Ras^G12C interaction assay with hSOS1 (HTRF). Type of assay: binding. Particulars: E-notation values; unit inferred; read-out: Assay 1 (KRAS-SOS interaction) IC50. In general terms: In TR-FRET formats the signal depends on donor and acceptor labels being close together.

The target of assay [2] is human SOS1 (nucleotide exchange of K-Ras^G12C) (Homo sapiens, UniProt Q07889). The assay is described as follows: Biochemical assay 2: K-Ras^G12C activation assay by hSOS1 at high GTP concentration (HTRF). Particulars: E-notation values; unit inferred; 50 μM GTP; read-out: Assay 2 (KRAS-Activation, high GTP) IC50.

For orientation: IC50 means the concentration at which inhibition is half-maximal.

As for `COc1ccc(-c2ccc(C(C)Nc3nc(C)nc4cc(OC)c(OC)cc34)s2)c(CN(C)C)c1` (stereo not drawn) [Example 439, N-[1-(5-{2-[(dimethylamino)methyl]-4-methoxyphenyl}thiophen-2-yl)ethyl]-6,7-dimethoxy-2-methylquinazolin-4-amine], the half-inhibitory concentration (IC50) in assay [1] came to 277 nM; in assay [2], 145 nM.
On the same counts, the results for `Cc1nc(NC(C)c2ccc(-c3ccccc3CN(C)C)s2)c2cc(NC(=O)N(C)C)ccc2n1` (stereo not drawn) [Example 440, 3-(4-{[1-(5-{2-[(dimethylamino)methyl]phenyl}thiophen-2-yl)ethyl]amino}-2-methylquinazolin-6-yl)-1,1-dimethylurea] are 706 nM and 576 nM.
Taken in the same sequence, the figures for `Cc1nc(NC(C)c2ccc(Br)s2)c2cc(N3CCN(Cc4ccccc4)C(=O)C3)ccc2n1` (stereo not drawn) [Example 441, 1-benzyl-4-(4-{[1-(5-bromothiophen-2-yl)ethyl]amino}-2-methylquinazolin-6-yl)piperazin-2-one] were 16100 nM and 3950 nM.
On the same counts, the results for `COc1cc2nc(C)nc(NC(C)c3ccc(-c4ccc(C)cc4CN(C)C)s3)c2cc1OC` (stereo not drawn) [Example 442, N-[1-(5-{2-[(dimethylamino)methyl]-4-methylphenyl}thiophen-2-yl)ethyl]-6,7-dimethoxy-2-methylquinazolin-4-amine] are 45.3 nM and 39.4 nM.
As for `COc1cc2nc(C)nc(NC(C)c3ccc(-c4ccc(C5CC5)cc4CN(C)C)s3)c2cc1OC` (stereo not drawn) [Example 443, N-[1-(5-{4-cyclopropyl-2-[(dimethylamino)methyl]phenyl}thiophen-2-yl)ethyl]-6,7-dimethoxy-2-methylquinazolin-4-amine], the IC50 turned out to be 112 nM in assay [1] and 60.5 nM in assay [2].
Taken in the same sequence, the figures for `COc1cc2nc(C)nc(NC(C)c3ccc(-c4ccccc4C(C)(C)N)s3)c2cc1OC` (stereo not drawn) [Example 455, N-[1-{5-[2-(2-aminopropan-2-yl)phenyl]thiophen-2-yl}ethyl]-6,7-dimethoxy-2-methylquinazolin-4-amine] were 397 nM and 1040 nM.
On the same counts, the results for `COc1cc2nc(C)nc(NC(C)c3ccc(-c4ccccc4CN(C)CC#N)s3)c2cc1OC` (stereo not drawn) [Example 456, {[2-(5-{1-[(6,7-dimethoxy-2-methylquinazolin-4-yl)amino]ethyl}thiophen-2-yl)benzyl](methyl)amino}acetonitrile] are 162 nM and 292 nM.
Regarding `CNC(=O)Nc1ccc2nc(C)nc(NC(C)c3ccc(-c4ccccc4CN(C)C)s3)c2c1` (stereo not drawn) [Example 457, 1-(4-{[1-(5-{2-[(dimethylamino)methyl]phenyl}thiophen-2-yl)ethyl]amino}-2-methylquinazolin-6-yl)-3-methylurea], the IC50 in assay [1] was determined as 295 nM; in assay [2], 682 nM.
For the compound `Cc1nc(NC(C)c2ccc(-c3ccccc3CN(C)C)s2)c2cc(N3CCN(Cc4ccccc4)C(=O)C3)ccc2n1` (stereo not drawn) [Example 458, 1-benzyl-4-(4-{[1-(5-{2-[(dimethylamino)methyl]phenyl}thiophen-2-yl)ethyl]amino}-2-methylquinazolin-6-yl)piperazin-2-one], the IC50 in assay [1] came to 48 nM; in assay [2] it was 40 nM.
